Like-named read-outs stand apart in the source and are kept apart here.
Legend:
[1] = system: Na^+ transport, MDCK cells; assay: In vitro diuretic activity: Na^+ transport inhibition, Transwell chamber seeded with MDCK cells; assay type: cell-based, canine; conditions: for inhibition at 100 µM: Canis lupus familiaris, MDCK
Text: (§1) The traditional methods for screening diuretic drugs are mostly in vivo experiments with mice, which have a long experimental cycle and are not suitable for screening massive compounds. As we know, the generation and excretion of urine involve two processes: glomerular filtration and tubular reabsorption. Reabsorption refers to the process in which the renal tubular epithelial cells transport water and certain solutes from the tubular fluid (urine) partially or entirely back into the bloodstream. Then, 99% of the water in the original urine filtered by the glomerulus is reabsorbed, and the transport of Na^+ and Cl^− plays an important role in this process. Thiazide and furosemide diuretics exert their diuretic effects by inhibiting the transport of Na^+ and Cl^−, which affects the tubular reabsorption of the original urine. Based on this principle, we established a new type of cell screening model for diuretic active drugs. Madin–Darby canine kidney (MDCK) cells were inoculated into a Transwell chamber to simulate the renal tubules. This cell model could transport and absorb external NaCl, simulating the reabsorption phenomenon. […] The effectiveness of this model was confirmed by the validation of hydrochlorothiazide, which is a commercially available diuretic drug and could inhibit the transport of Na^+ and Cl^− in renal tubules.
(§2) Generally, the transport of Na^+ and Cl^− plays an important role in glomerular filtration and tubular reabsorption. […] For example, inhibition rates of transport of 6a and 6c were over 30%, and had better inhibitory ability than barbatic acid. […] When ethyl, propyl, and benzyl were substituted on R^1, the introduction of any group could not enhance the inhibitory activity of barbatic acid, such as 6h–u and 6j′–6p′.
(§3) Log-phase MDCK cells were seeded in the upper chambers of Transwell plates (4 × 10^4 cells/well), and 800 µL of complete culture medium was added to the lower chambers. After 24 h of incubation at 37 °C, the electrical resistance of the upper chamber cells was measured one by one (R = (Rcell − Rblank) × 0.04π). When the electrical resistance of the upper chamber cells reached ≥300 Ω cm^2, the upper chamber medium was removed and replaced with the drug solution. The blank group (given normal saline), the experimental group (1, 6a–6p′, 100 μmol/L), and the hydrochlorothiazide group (100 μmol/L) were set, and each well was treated with 100 µL of the corresponding solution. The cells were then further incubated for 24 h. After that, the upper and lower chamber fluids were removed, and 200 µL of NaCl solution (15 mg/mL) was added to the upper chamber, while 800 µL of DMEM was added to the lower chamber for continued incubation. At 0.5, 1, 2, and 3 h, 50 µL of the lower chamber fluid was taken and the OD values were measured using Na^+ and Cl^− detection kits. The transport inhibition rate (%) was calculated as follows: transport inhibition rate (%) = (ODblank − ODexperimental)/ODblank × 100%.

[2] = system: Cl^− transport, MDCK cells; assay: In vitro diuretic activity: Cl^− transport inhibition, Transwell chamber seeded with MDCK cells; assay type: cell-based, canine; conditions: Canis lupus familiaris, read-out: Transport Inhibition Rate (%) Cl^−
Text: as §1, §2, §3

[3] = system: Ca^2+ transport, MDCK cells; assay: In vitro litholytic activity: Ca^2+ transport inhibition, Transwell chamber with MDCK cells; assay type: cell-based, canine; conditions: Canis lupus familiaris, 100 μmol/L, mean ± SD of three replicates, read-out: Transport Inhibition Rate (%) Ca^2+
Method: (§4) On the other hand, all compounds had little inhibitory effect on Ca^2+ transport. The structure–activity relationships (SARs) were also observed. […] On the other hand, the introduction of the benzyl group to the R^1 or R^2 of barbatic acid could not lead to more promising compounds, such as 6a, 6n, 6u, 6b′, and 6i′–p′.
(§5) Logarithmic-phase DMCK cells were inoculated in the upper chamber of a Transwell plate (4 × 10^4 cells/well). Then, 800 µL of complete culture medium was added to the lower chamber, and the cells were incubated for 24 h until they adhered to the wall. The resistance value of the upper chamber cells was measured one by one at 37 °C (R = (Rcell − Rblank) × 0.04π). When the resistance value of the upper chamber cells was ≥300 Ω cm^2, the upper chamber liquid was discarded for drug administration. A control group (given physiological saline) and an experimental group (1, 6a–6p′, 100 μmol/L) were set up, and 100 µL of each drug was administered per well, followed by continued incubation for 24 h. Then, the upper and lower chamber liquids were discarded, and 200 µL of CaC2O4 (30 mmol/L) solution was added to the upper chamber, and 800 µL of PBS solution was added to the lower chamber for continued incubation. At 0.5, 1, 2, and 3 h, 50 µL of the lower chamber liquid was taken and then tested using the Ca^2+ and C2O4^2− detection kits and the following detection methods. The transport inhibition rate (%) = (ODblank − ODexperimental)/ODblank × 100%.

[4] = system: C2O4^2− transport, MDCK cells; assay: In vitro litholytic activity: C2O4^2− transport inhibition, Transwell chamber with MDCK cells; assay type: cell-based, canine; conditions: Canis lupus familiaris; 100 μmol/L, MDCK cells in Transwell; mean ± SD of three replicates; read-out: Transport Inhibition Rate (%) C2O4^2−
Method: as §4, §5

MDCK cells = assay: MTT cytotoxicity assay on MDCK cells; assay type: cell-based, canine; conditions: Canis lupus familiaris, 100 μmol/L, 24 h, mean ± SD of three replicates, read-out: Growth Inhibition Rate (%)
Method: First, we used the MTT method to perform cytotoxicity of barbatic acid derivatives (1, 6a–6p′) on MDCK cells at the concentration of 100 μmol/L, and the results are shown in Table 1.
The MTT assay was used to evaluate the cytotoxicity of the target compounds on DMCK cells. Logarithmic-growth-phase DMCK cells were seeded in a 96-well plate (10^4 cells/well) and incubated in a cell culture incubator for 24 h. The culture medium was then removed and replaced with a drug-containing medium for the treatment groups (1, 6a–6p′, 100 μmol/L), normal saline for the control group, or hydrochlorothiazide (100 μmol/L) for the positive control group. Each well was treated with 100 µL of the respective solution and incubated for an additional 24 h. The culture medium was then removed and replaced with a DMEM solution containing 20 µL of MTT (5 mg/mL). After incubating for 4 h, the liquid in each well was removed and replaced with 150 µL of DMSO, which was shaken for 10 min to ensure thorough mixing. The absorbance at 490 nm was measured to determine the optical density (OD) of each well. Cell growth inhibition rate (%) = (ODBlank − ODExperimental)/ODBlank × 100%.

[5] = 100 μmol/L, MDCK cells in Transwell, mean ± SD of three replicates, negative = promotion, read-out: Transport Inhibition Rate (%) Na^+
[6] = 100 μmol/L, MDCK cells in Transwell, mean ± SD of three replicates, negative = promotion

Cc1cc(OC(=O)c2c(C)cc(OC(C)C)c(C)c2O)c(C)c(O)c1C(=O)OCC#N [6a′, 4-((cyanomethoxy)carbonyl)-3-hydroxy-2,5-dimethylphenyl 2-hydroxy-4-isopropoxy-3,6-dimethylbenzoate]
inhibition at 100 µM [1, 5]: -15.8 ± 4.85% | inhibition at 100 µM [2, 6]: -10 ± 1.95% | inhibition at 100 µM [3]: -0.91 ± 0.11% | inhibition at 100 µM [4]: -13.2 ± 1.67% | melting point: 155 to 158 °C | inhibition at 100 µM (MDCK cells): < 0%

Cc1cc(OC(=O)c2c(C)cc(OC(C)C)c(C)c2O)c(C)c(O)c1C(=O)OCc1ccccc1 [6b′, benzyl 2-hydroxy-4-(2-hydroxy-4-isopropoxy-3,6-dimethylbenzoyloxy)-3,6-dimethylbenzoate]
Transport Inhibition Rate (%) Na^+ [1, 6]: 33.08 ± 0.35% | inhibition at 100 µM [1, 5]: > 30% | Na^+ transport inhibition rate at 1, 2, and 3 h ([1]; evaluated at 1, 2, and 3 h (Figure 3)): above 20% | inhibition at 100 µM [2, 6]: 15.9 ± 0.25% | inhibition at 100 µM [3]: 0.73 ± 0.08% | inhibition at 100 µM [4]: -20.6 ± 1.31% | melting point: 83 to 86 °C | inhibition at 100 µM (MDCK cells): < 0%

C=CCOc1cc(C)c(C(=O)Oc2cc(C)c(C(=O)OCC)c(O)c2C)c(O)c1C [6d′, 4-(ethoxycarbonyl)-3-hydroxy-2,5-dimethylphenyl 4-(allyloxy)-2-hydroxy-3,6-dimethylbenzoate]
inhibition at 100 µM [1, 5]: -7.24 ± 0.75% | inhibition at 100 µM [2, 6]: -5.06 ± 0.35% | inhibition at 100 µM [3]: 2.04 ± 0.03% | inhibition at 100 µM [4]: 0.52 ± 1.86% | melting point: 116 to 120 °C | inhibition at 100 µM (MDCK cells): 1.42%

C=CCOc1cc(C)c(C(=O)Oc2cc(C)c(C(=O)OCCC)c(O)c2C)c(O)c1C [6e′, 3-hydroxy-2,5-dimethyl-4-(propoxycarbonyl)phenyl 4-(allyloxy)-2-hydroxy-3,6-dimethylbenzoate]
inhibition at 100 µM [1, 5]: 2.79 ± 0.25% | inhibition at 100 µM [2, 6]: -12.9 ± 0.85% | inhibition at 100 µM [3]: 2.04 ± 0.08% | inhibition at 100 µM [4]: 5.77 ± 3.15% | inhibition at 100 µM (MDCK cells): < 0%

C=CCOC(=O)c1c(C)cc(OC(=O)c2c(C)cc(OCC=C)c(C)c2O)c(C)c1O [6g′, allyl 4-(4-(allyloxy)-2-hydroxy-3,6-dimethylbenzoyloxy)-2-hydroxy-3,6-dimethylbenzoate]
inhibition at 100 µM [1, 5]: 5.29 ± 0.15% | inhibition at 100 µM [2, 6]: 18.6 ± 2.2% | inhibition at 100 µM [3]: 2.79 ± 0.13% | inhibition at 100 µM [4]: -11.3 ± 1.9% | melting point: 110 to 113 °C | inhibition at 100 µM (MDCK cells): < 0%

C=CCOc1cc(C)c(C(=O)Oc2cc(C)c(C(=O)OCC#N)c(O)c2C)c(O)c1C [6h′, allyl 4-((cyanomethoxy)carbonyl)-3-hydroxy-2,5-dimethylphenyl 4-(allyloxy)-2-hydroxy-3,6-dimethylbenzoate]
inhibition at 100 µM [1, 5]: -14.4 ± 2.4% | inhibition at 100 µM [2, 6]: 0.62 ± 0.7% | inhibition at 100 µM [3]: -0.38 ± 0.16% | inhibition at 100 µM [4]: 10.7 ± 1.41% | melting point: 124 to 127 °C | inhibition at 100 µM (MDCK cells): < 0%

C=CCOc1cc(C)c(C(=O)Oc2cc(C)c(C(=O)OCc3ccccc3)c(O)c2C)c(O)c1C [6i′, benzyl 4-(4-(allyloxy)-2-hydroxy-3,6-dimethylbenzoyloxy)-2-hydroxy-3,6-dimethylbenzoate]
inhibition at 100 µM [1, 5]: -12.9 ± 1.6% | inhibition at 100 µM [2, 6]: -8.43 ± 2.85% | inhibition at 100 µM [3]: 2.68 ± 0.11% | inhibition at 100 µM [4]: 11.4 ± 1.13% | melting point: 75 to 78 °C | inhibition at 100 µM (MDCK cells): 2.43 ± 0.3%

COC(=O)c1c(C)cc(OC(=O)c2c(C)cc(OCc3ccccc3)c(C)c2O)c(C)c1O [6j′, 3-hydroxy-4-(methoxycarbonyl)-2,5-dimethylphenyl 4-(benzyloxy)-2-hydroxy-3,6-dimethylbenzoate]
inhibition at 100 µM [1, 5]: -5.13 ± 0.25% | inhibition at 100 µM [2, 6]: 0.62 ± 0.8% | inhibition at 100 µM [3]: 0% | inhibition at 100 µM [4]: -1.79 ± 3.79% | melting point: 131 to 134 °C | inhibition at 100 µM (MDCK cells): < 0%

CCOC(=O)c1c(C)cc(OC(=O)c2c(C)cc(OCc3ccccc3)c(C)c2O)c(C)c1O [6k′, 4-(ethoxycarbonyl)-3-hydroxy-2,5-dimethylphenyl 4-(benzyloxy)-2-hydroxy-3,6-dimethylbenzoate]
inhibition at 100 µM [1, 5]: 14.1 ± 3.2% | inhibition at 100 µM [2, 6]: -19.6 ± 2.4% | inhibition at 100 µM [3]: 1.34 ± 0.1% | inhibition at 100 µM [4]: 10.3 ± 2.11% | melting point: 123 to 126 °C | inhibition at 100 µM (MDCK cells): 1.45 ± 0.1%

CCCOC(=O)c1c(C)cc(OC(=O)c2c(C)cc(OCc3ccccc3)c(C)c2O)c(C)c1O [6l′, 3-hydroxy-2,5-dimethyl-4-(propoxycarbonyl)phenyl 4-(benzyloxy)-2-hydroxy-3,6-dimethylbenzoate]
inhibition at 100 µM [1, 5]: -18.2 ± 0.2% | inhibition at 100 µM [2, 6]: -2.92 ± 2.15% | inhibition at 100 µM [3]: -2.68 ± 0.39% | inhibition at 100 µM [4]: 16.5 ± 4.38% | melting point: 115 to 118 °C | inhibition at 100 µM (MDCK cells): 2.11 ± 0.9%

Cc1cc(OCc2ccccc2)c(C)c(O)c1C(=O)Oc1cc(C)c(C(=O)OC(C)C)c(O)c1C [6m′, 3-hydroxy-4-(isopropoxycarbonyl)-2,5-dimethylphenyl 4-(benzyloxy)-2-hydroxy-3,6-dimethylbenzoate]
inhibition at 100 µM [1, 5]: -0.36 ± 0.4% | inhibition at 100 µM [2, 6]: -4.93 ± 2.95% | inhibition at 100 µM [3]: -2.06 ± 0.09% | inhibition at 100 µM [4]: 2.28 ± 1.34% | melting point: 135 to 138 °C | inhibition at 100 µM (MDCK cells): < 0%

C=CCOC(=O)c1c(C)cc(OC(=O)c2c(C)cc(OCc3ccccc3)c(C)c2O)c(C)c1O [6n′, allyl 4-(4-(benzyloxy)-2-hydroxy-3,6-dimethylbenzoyloxy)-2-hydroxy-3,6-dimethylbenzoate]
inhibition at 100 µM [1, 5]: -1.85 ± 0.8% | inhibition at 100 µM [2, 6]: -13 ± 0.15% | inhibition at 100 µM [3]: 0.1 ± 0.3% | inhibition at 100 µM [4]: -29.4 ± 3.89% | melting point: 127 to 130 °C | inhibition at 100 µM (MDCK cells): < 0%

NS(=O)(=O)c1cc2c(cc1Cl)NCNS2(=O)=O [Hyd, hydrochlorothiazide, reference compound]
inhibition at 100 µM ([1]; read-out: Transport Inhibition Rate (%) Na^+, 100 μmol/L, MDCK cells in Transwell, mean ± SD of three replicates, negative = promotion): 25.1 ± 0.85% | inhibition at 100 µM ([2]; MDCK): 19.7 ± 1% | inhibition at 100 µM (MDCK cells): < 0%

Reference: publication PMC10222548, “Semisynthesis, Biological Evaluation and Molecular Docking Studies of Barbatic Acid Derivatives as Novel Diuretic Candidates” (Molecules, 2023)
